Laboratory results published in BigSolDB 2.1.

CCOC(=O)[C@@H](C)Oc1ccc(Oc2nc3ccc(Cl)cc3o2)cc1
solubility (mole fraction)
Details	278.15 K	283.15 K	288.15 K	293.15 K	298.15 K	303.15 K	308.15 K	313.15 K	318.15 K	323.15 K
in ethanol	0.000972	0.00121	0.0015	0.00186	0.00224	0.00266	0.00314	0.00376	0.00446	0.00534
in water	1.93e-06	2.91e-06	4.12e-06	5.68e-06	7.36e-06	9.61e-06	1.24e-05	1.59e-05	2.03e-05	2.57e-05
